Patent US12364706B2, “Modified aminoglycoside compounds and uses thereof in disabling bacterial ribosome” (Technion Research & Development Foundation Limited, priority 2018, dated 2025)

Tests used:
[1] = system: Gram-positive pathogenic MRSA strains; assay: Antibacterial activity (MIC, double-microdilution) against MRSA strains; type: cell-based; details: relative to NeoB
Procedure: (§1) Comparative antibacterial activities were determined by measuring the MIC values by using the double-microdilution method according to the National Committee for Clinical Laboratory Standards (NCCLS).
(§2) All the experiments were performed in triplicate, and analogous results were obtained in three different experiments.
The resistant strains included MRSA, a Gram-positive bacterium, the treatment of which represents a great challenge in the clinic; MRSA 252, which is known for its high resistance to aminoglycosides [M. T. G. Holden, E. J. Feil, J. A. Lindsay, S. J. Peacock, N. P. J. Day, M. C. Enright, T. J. Foster, C. E. Moore, L. Hurst, R. Atkin, et al., Proc. Natl. Acad. Sci. USA 2004, 101, 9786-9791]; and MRSA CI 15877, which is resistant to natural aminoglycosides [G. Kaneti, H. Sarig, I. Marjieh, Z. Fadia, A. Mor, FASEB J. 2013, 27, 4834-4843].

[2] = system: WT and aminoglycoside-resistant strains, including Gram-negative and Gram-positive bacteria; assay: Antibacterial activity (MIC) against WT and aminoglycoside-resistant strains; type: cell-based
Procedure: as §1, §2
The minimal inhibitory concentration (MIC) values of the newly designed exemplary Compounds 1-10 were determined against wild-type (WT) Gram-negative and Gram-positive bacteria.
The bacterial strains that were included in these tests were as follows:
Two wild-type (WT) E. coli strains (R477-100 and 25922) as representatives of Gram-negative bacteria with unknown resistance to aminoglycosides [V. Pokrovskaya, V. Belakhov, M. Hainrichson, S. Yaron, T. Baasov, J. Med. Chem. 2009, 52, 2243-2254] and two WT Staphylococcus epidermidis and Bacillus subtilis strains as representatives of Gram-positive bacteria (the clinically used aminoglycosides have significant antibacterial activity against these strains) [J. Kondo, M. Hainrichson, I. Nudelman, D. Shallom-Shezifi, C. M. C. M. Barbieri, D. S. D. S. Pilch, E. Westhof, T. Baasov, ChemBioChem 2007, 8, 1700-1709]. […]

E. coli ribosomes = assay: rRNA cleavage experiments with full-size E. coli ribosomes (gel electrophoresis); type: biochemical
[3] = system: E. coli S30 extract for circular DNA with the pBESTluc plasmid; assay: Prokaryotic in vitro translation inhibition, coupled transcription/translation assay; type: biochemical; details: for IC50: prokaryotic system, 37° C., 60 minutes, read-out: IC50 values, protein translation inhibition (half-maximum inhibition levels); for inhibitory potency of protein translation compared with NeoB: relative to NeoB
Procedure: Prokaryotic in vitro translation inhibition by the different standard and synthetic aminoglycosides was quantified in coupled transcription/translation assays by use of E. coli S30 extract for circular DNA with the pBESTluc plasmid (Promega), according to the manufacturer's protocol.
Translation reactions ([…]) containing variable concentrations of the tested aminoglycoside were incubated at 37° C. for 60 minutes, cooled on ice for 5 minutes, and diluted with a dilution reagent [Tris-phosphate buffer (25 mm, pH 7.8), dithiothreitol (DTT, 2 mm), 1,2-diaminocyclohexanetetraacetate (2 mm), glycerol (10%), triton X100 (1%), and bovine serum albumin (BSA, 1 mg/mL] into 96-well plates.
The luminescence was measured immediately after the addition of Luciferase Assay Reagent (Promega) ([…]), and light emission was recorded with a Victor3 Plate Reader (PerkinElmer).
The concentration of half-maximal inhibition (IC^50) was obtained from fitting concentration-response curves to the data of at least three independent experiments by using Grafit 5 software.

[4] = system: Geobacillus T1 harboring the resistance to kanamycin; assay: Antibacterial activity against kanamycin-resistant Geobacillus T1; type: cell-based
Procedure: as §1, §2

[5] = system: adenylyl(3′-5′)-adenosine (ApA); details: relative to 1,3-propanediamine; cited from earlier work

4′-O-(2-aminoethylamino)ethyl-neomycin [Compound 2]
MIC values, times lower than that of NeoB [1]: 64 times

4′-O-(2-aminoethylamino)ethyl-paromamine [Compound 1]
antibacterial activity [2]: substantially lower than that of the other compounds tested

CNCCNCCO[C@H]1[C@H](O)[C@@H](N)[C@@H](O[C@H]2[C@H](O[C@@H]3O[C@H](CO)[C@@H](O[C@H]4O[C@@H](CN)[C@@H](O)[C@H](O)[C@H]4N)[C@H]3O)[C@@H](O)[C@H](N)C[C@@H]2N)O[C@@H]1CN [Compound 3, 4′-O-(2-(methylamino)ethylamino)ethyl-neomycin]
cleavage of rRNA in full ribosomes (E. coli ribosomes; pH 7): did not show any signs of the cleaved product

NCCNCC(=O)N[C@H]1[C@H](O)[C@@H](N)[C@@H](O[C@H]2[C@H](O[C@@H]3O[C@H](CO)[C@@H](O[C@H]4O[C@@H](CN)[C@@H](O)[C@H](O)[C@H]4N)[C@H]3O)[C@@H](O)[C@H](N)C[C@@H]2N)O[C@@H]1CN [Compound 6, 4′-(2-(aminoethylamino)acetamido)-4′-deoxy-neomycin]
IC50 [3]: 6 nM
inhibitory potency of protein translation compared with NeoB [3]: two-fold higher than that of NeoB

NCCNCCNCC(=O)NC1C(CN)OC(OC2C(N)CC(N)C(O)C2OC2OC(CO)C(OC3OC(CN)C(O)C(O)C3N)C2O)C(N)C1O (stereo not drawn) [Compound 8, 4′-[2-(2-(2-aminoethylamino)ethylamino)acetamido]-4′-deoxy-neomycin]
MIC values, times lower than that of NeoB [1]: 64 times

NCCNCC(=O)NC[C@H]1O[C@H](O[C@H]2[C@H](O[C@@H]3O[C@H](CO)[C@@H](O[C@H]4O[C@@H](CN)[C@@H](O)[C@H](O)[C@H]4N)[C@H]3O)[C@@H](O)[C@H](N)C[C@@H]2N)[C@H](N)[C@@H](O)[C@@H]1N [Compound 9, 4′-amino-6′-(2-(aminoethylamino)acetamido)-4′-deoxy-neomycin]
IC50 [3]: 5 nM
inhibitory potency of protein translation compared with NeoB [3]: two-fold higher than that of NeoB

NCCNCCNCC(=O)NC[C@H]1O[C@H](O[C@H]2[C@H](O[C@@H]3O[C@H](CO)[C@@H](O[C@H]4O[C@@H](CN)[C@@H](O)[C@H](O)[C@H]4N)[C@H]3O)[C@@H](O)[C@H](N)C[C@@H]2N)[C@H](N)[C@@H](O)[C@@H]1N [Compound 10, 4′-amino-6′-[2-(2-(2-aminoethylamino)ethylamino)acetamido]-4′-deoxy-neomycin]
IC50 [3]: 6 nM
inhibitory potency of protein translation compared with NeoB [3]: two-fold higher than that of NeoB

NC[C@@H]1O[C@H](O[C@H]2[C@@H](O)[C@H](O[C@@H]3[C@@H](O)[C@H](N)C[C@H](N)[C@H]3O[C@H]3O[C@H](CN)[C@@H](O)[C@H](O)[C@H]3N)O[C@@H]2CO)[C@H](N)[C@@H](O)[C@@H]1O [NeoB, Neomycin B]
IC50 [3]: 10 nM
antibacterial activity [4]: almost lost its activity
cleavage of rRNA in full ribosomes (E. coli ribosomes; concentrations up to 400 mM, 24 hours, 37° C., pH 7.0): did not show any signs of the cleaved product
hydrolysis of ApA, faster than 1,3-propanediamine [5]: 3 fold

NCCN [ethylenediamine]
cleavage of rRNA in full ribosomes (E. coli ribosomes; pH 7): did not cleave the full ribosome
